Values of other authors as cited in patent publication US20130281394A1, “Chemosensory Receptor Ligand-Based Therapies” (ELCELYX THERAPEUTICS, INC., priority 2010, published 2013).

System: bitter receptor
Details: not given
In the case of `C=CCC(=NOS(=O)(=O)O)S[C@@H]1O[C@H](CO)[C@@H](O)[C@H](O)[C@H]1O` (stereo in doubt) [Sinigrin], the Taste quality is given as “Bitter”.
In the case of `C[S+]([O-])CCCN=C=S` (centres unmarked) [3-Methyl-sulfinylpropyl isothiocyanate], the Taste quality is given as “Acrid mustard oils”.
For `C[S+]([O-])CCCCN=C=S` (centres unmarked) [4-Methylsulfinyl butyl isothiocyanate], the Taste quality is listed as “Acrid mustard oils”.
For `C=CCN=C=S` [Allyl-isothiocyanate], the Taste quality is given as “Acrid mustard oils;”.
For `S=C=NCc1ccccc1` [Benzyl isothiocyanate], the Taste quality is listed as “Acrid mustard oils;”.
For `O=c1c(-c2ccc(O)cc2)coc2cc(O[C@@H]3O[C@H](CO)[C@@H](O)[C@H](O)[C@H]3O)ccc12` [Daidzin], the Taste quality is listed as “Astringent”.
For `O=C(O[C@@H]1Cc2c(O)cc(O)cc2O[C@@H]1c1ccc(O)c(O)c1)c1cc(O)c(O)c(O)c1` [Epicatechin gallate], the Taste quality is listed as “Bitter and astringent”.
In the case of `O=C(O[C@@H]1Cc2c(O)cc(O)cc2O[C@@H]1c1cc(O)c(O)c(O)c1)c1cc(O)c(O)c(O)c1` [Epigallocatechin gallate], the Taste quality is given as “Bitter with sweet”.
In the case of `Oc1cc(O)c2c(c1)O[C@H](c1cc(O)c(O)c(O)c1)[C@H](O)C2` [Epigallocatechin], the Taste quality is listed as “Bitter with sweet”.
For `O=c1c(-c2ccc(O)cc2)coc2cc(O)cc(O)c12` [Genistein], the Taste quality is given as “Bitter or astringent”.
In the case of `O=c1c(-c2ccc(O)cc2)coc2cc(O[C@@H]3O[C@H](CO)[C@@H](O)[C@H](O)[C@H]3O)cc(O)c12` [Genistin], the Taste quality is listed as “Astringent”.
In the case of `O=S(=O)(O)ON=C(Cc1c[nH]c2ccccc12)S[C@@H]1O[C@H](CO)[C@@H](O)[C@H](O)[C@H]1O` [Glucobrassicin], the Taste quality is listed as “Bitter”.
For `C=CC1CNC(=S)O1` (centres unmarked) [Goitrin 5-vinyl-2-oxazolidine thione, 5-vinyl-2-oxazolidine thione], the Taste quality is given as “Bitter”.
In the case of `CC1(C)O[C@H]2CC(=O)OC[C@]23[C@H]2CC[C@@](C)([C@@H](O[C@@H]4O[C@H](CO)[C@@H](O)[C@H](O)[C@H]4O)c4ccoc4)[C@@]4(O[C@@H]4C(=O)O)[C@]2(C)C(=O)C[C@@H]13` [Limonin glucoside], the Taste quality is listed as “Tasteless”.
In the case of `CC1(C)O[C@H]2CC(=O)OC[C@]23[C@H]2CC[C@@]4(C)[C@H](c5ccoc5)OC(=O)[C@H]5O[C@]54[C@]2(C)C(=O)C[C@@H]13` [Limonin], the Taste quality is given as “Bitter”.

Target: T1, sweet receptor (Homo sapiens, UniProt Q7RTX0+Q8TE23)
T1 sequence (Q8TE23 20-839): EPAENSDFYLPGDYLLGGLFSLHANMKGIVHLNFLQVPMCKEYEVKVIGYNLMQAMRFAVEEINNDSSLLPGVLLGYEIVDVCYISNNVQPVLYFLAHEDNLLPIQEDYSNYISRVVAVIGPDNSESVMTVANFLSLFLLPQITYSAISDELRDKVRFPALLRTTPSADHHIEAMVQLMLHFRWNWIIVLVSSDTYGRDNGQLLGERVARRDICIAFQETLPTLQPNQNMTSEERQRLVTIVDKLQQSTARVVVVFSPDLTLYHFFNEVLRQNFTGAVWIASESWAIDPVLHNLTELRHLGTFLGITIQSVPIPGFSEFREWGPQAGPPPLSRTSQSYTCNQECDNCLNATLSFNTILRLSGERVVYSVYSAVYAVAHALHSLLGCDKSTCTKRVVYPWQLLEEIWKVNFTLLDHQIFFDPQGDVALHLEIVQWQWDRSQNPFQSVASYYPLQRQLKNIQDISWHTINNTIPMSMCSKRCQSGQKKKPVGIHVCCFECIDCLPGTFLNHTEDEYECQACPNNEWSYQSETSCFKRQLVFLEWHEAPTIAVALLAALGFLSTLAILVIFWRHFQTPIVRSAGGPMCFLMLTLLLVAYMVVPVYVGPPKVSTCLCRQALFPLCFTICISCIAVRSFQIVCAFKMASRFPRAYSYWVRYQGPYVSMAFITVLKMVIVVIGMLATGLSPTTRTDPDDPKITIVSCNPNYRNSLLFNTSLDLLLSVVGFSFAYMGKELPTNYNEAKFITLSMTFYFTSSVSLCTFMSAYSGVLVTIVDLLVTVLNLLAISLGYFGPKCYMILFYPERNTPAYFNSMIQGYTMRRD
T1 sequence (Q7RTX0 21-852): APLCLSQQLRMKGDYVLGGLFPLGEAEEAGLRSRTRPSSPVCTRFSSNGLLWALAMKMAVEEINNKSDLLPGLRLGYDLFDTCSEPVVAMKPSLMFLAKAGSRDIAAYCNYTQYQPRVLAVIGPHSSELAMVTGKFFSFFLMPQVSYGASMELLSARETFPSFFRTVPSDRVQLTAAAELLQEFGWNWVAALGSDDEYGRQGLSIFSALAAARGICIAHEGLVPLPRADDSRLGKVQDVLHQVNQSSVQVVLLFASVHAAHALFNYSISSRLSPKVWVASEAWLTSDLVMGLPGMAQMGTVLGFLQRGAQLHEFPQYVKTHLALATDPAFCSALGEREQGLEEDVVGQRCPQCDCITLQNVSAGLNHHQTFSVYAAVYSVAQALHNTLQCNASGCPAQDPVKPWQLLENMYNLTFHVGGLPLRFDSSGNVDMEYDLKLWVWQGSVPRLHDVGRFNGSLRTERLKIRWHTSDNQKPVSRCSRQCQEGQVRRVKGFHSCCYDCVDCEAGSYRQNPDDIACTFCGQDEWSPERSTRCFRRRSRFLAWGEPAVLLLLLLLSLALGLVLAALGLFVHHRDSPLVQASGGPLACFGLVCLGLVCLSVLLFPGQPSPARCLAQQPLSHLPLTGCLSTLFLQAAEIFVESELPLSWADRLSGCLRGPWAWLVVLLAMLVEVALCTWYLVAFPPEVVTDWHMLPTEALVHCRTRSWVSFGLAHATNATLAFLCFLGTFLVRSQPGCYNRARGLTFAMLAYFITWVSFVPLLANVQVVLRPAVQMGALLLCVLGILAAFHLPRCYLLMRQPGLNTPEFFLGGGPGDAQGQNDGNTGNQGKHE
Details: relative sweetness on a weight comparison basis to sucrose (= 1.0); ranges: varied with the concentration of sucrose
In the case of `CC1(C)[C@@H](O[C@@H]2O[C@H](C(=O)O)[C@@H](O)[C@H](O)[C@H]2O[C@@H]2O[C@H](C(=O)O)[C@@H](O)[C@H](O)[C@H]2O)CC[C@]2(C=O)[C@H]3CC[C@@H]4C5=C[C@@](C)(C(=O)O)CC[C@]5(C)CC[C@@]4(C)[C@]3(C)CC[C@@H]12` [Periandrin I], the Sweetness/potency is given as 90.
For `CC1(C(=O)O)C=C2C3CCC4C5(C=O)CCC(OC6OC(C(=O)O)C(O)C(O)C6OC6OCC(O)C(O)C6O)C(C)(C)C5CCC4(C)C3(C)CCC2(C)CC1` (centres unmarked) [Periandrin V], the Sweetness/potency is given as 220.
In the case of `C=C(C)[C@@H]1CC=C(/C=N/O)CC1` [Perillartine], the Sweetness/potency is given as 370.
In the case of `COc1ccc([C@H]2Cc3cccc(O)c3C(=O)O2)cc1O` [Phyllodulcin], the Sweetness/potency is given as 400.
For `C=C(C)C1CCC2(C)C(CC(OC3OCC(O)C(O)C3O)C3C(C(C)(O)C/C=C/C(C)(C)O)CCC32C)C1(C)CCC(=O)O` (centres unmarked) [Pterocaryoside B], the Sweetness/potency is given as 100.
In the case of `C=C1C[C@@]23CC[C@H]4[C@@](C)(CCC[C@@]4(C)C(=O)O[C@@H]4O[C@H](CO)[C@@H](O)[C@H](O)[C@H]4O[C@@H]4O[C@H](CO)[C@@H](O)[C@H](O)[C@H]4O)[C@@H]2CC[C@]1(O[C@@H]1O[C@H](CO)[C@@H](O)[C@H](O[C@@H]2O[C@H](CO)[C@@H](O)[C@H](O)[C@H]2O)[C@H]1O[C@@H]1O[C@H](CO)[C@@H](O)[C@H](O)[C@H]1O)C3` [Rebaudioside D], the Sweetness/potency is given as 221.
In the case of `C=C1C[C@@]23CC[C@H]4[C@@](C)(CCC[C@@]4(C)C(=O)O[C@@H]4O[C@H](CO)[C@@H](O)[C@H](O)[C@H]4O[C@@H]4O[C@H](CO)[C@@H](O)[C@H](O)[C@H]4O)[C@@H]2CC[C@]1(O[C@@H]1O[C@H](CO)[C@@H](O)[C@H](O)[C@H]1O[C@@H]1O[C@H](CO)[C@@H](O)[C@H](O)[C@H]1O)C3` [Rebaudioside E], the Sweetness/potency is given as 174.
For `C=C1C[C@@]23CC[C@H]4[C@@](C)(CCC[C@@]4(C)C(=O)O[C@@H]4O[C@H](CO)[C@@H](O)[C@H](O)[C@H]4O)[C@@H]2CC[C@]1(O[C@@H]1O[C@H](CO)[C@@H](O)[C@H](O)[C@H]1O)C3` [Rubusoside], the Sweetness/potency is listed as 115.
In the case of `Oc1ccc([C@H]2Oc3c(c(O)cc4c3[C@H]3c5c(O)cc(O)cc5O[C@@](c5ccc(O)cc5)(O4)[C@@H]3O)[C@H](c3c(O)cc(O)c4c3O[C@H](c3ccc(O)cc3)[C@@H](O)C4)[C@H]2O)cc1` [Selligueain A], the Sweetness/potency is given as 35.
For `C[C@H](CC[C@@H](O[C@@H]1O[C@H](CO[C@@H]2O[C@H](CO)[C@@H](O)[C@H](O)[C@H]2O)[C@@H](O)[C@H](O)[C@H]1O[C@@H]1O[C@H](CO)[C@@H](O)[C@H](O)[C@H]1O)C(C)(C)O)[C@H]1CC[C@@]2(C)[C@@H]3CC=C4[C@@H](CC[C@H](O[C@@H]5O[C@H](CO)[C@@H](O)[C@H](O)[C@H]5O)C4(C)C)[C@]3(C)[C@H](O)C[C@]12C` [Siamenoside I], the Sweetness/potency is listed as 563.
For `C=C1C[C@@]23CC[C@H]4[C@@](C)(CCC[C@@]4(C)C(=O)O)[C@@H]2CC[C@]1(O[C@@H]1O[C@H](CO)[C@@H](O)[C@H](O)[C@H]1O[C@@H]1O[C@H](CO)[C@@H](O)[C@H](O)[C@H]1O)C3` [Steviolbioside], the Sweetness/potency is given as 90.
For `C=C1C[C@@]23CC[C@H]4[C@@](C)(CCC[C@@]4(C)C(=O)O[C@@H]4O[C@H](CO)[C@@H](O)[C@H](O)[C@H]4O)[C@@H]2CC[C@]1(O[C@@H]1O[C@H](CO)[C@@H](O)[C@H](O)[C@H]1O[C@@H]1O[C@H](CO)[C@@H](O)[C@H](O)[C@H]1O)C3` [Stevioside], the Sweetness/potency is given as 210.
In the case of `CC[C@@H](C)C(=O)O[C@@H](C)[C@]1(O)CC[C@]2(O)[C@@H]3CC[C@H]4C[C@@H](O[C@@H]5C[C@H](O)[C@H](O[C@H]6C[C@H](OC)[C@H](O[C@H]7C[C@@H](OC)[C@H](O[C@H]8C[C@@H](OC)[C@H](O[C@@H]9O[C@H](C)[C@@H](O[C@@H]%10O[C@H](CO)[C@@H](O)[C@H](O)[C@H]%10O)[C@H](OC)[C@H]9O)[C@@H](C)O8)[C@@H](C)O7)[C@@H](C)O6)[C@@H](C)O5)CC[C@]4(C)[C@H]3C[C@@H](OC(C)=O)[C@]12C` [Telosmoside A15], the Sweetness/potency is given as 1000.
For `O=C/C=C/c1ccccc1` [Trans-Cinnamaldehyde], the Sweetness/potency is listed as 50.
In the case of `C/C=C/c1ccc(OC)cc1` [trans-Anethole], the Sweetness/potency is given as 13.
For Albiziasaponin B, the Sweetness/potency is listed as 600.
In the case of Baiyunoside, the Sweetness/potency is given as 500.
For “Brazzein (QDKCKKVYENYPVSKCQLANQCNYDCKLDKHARSGECFYDEKRNLQCICDYCEY; UniProt P56552 1-54, looked up) [sweet protein from Pentadiplandra brazzeana Baillon]”, the Sweetness/potency is listed as 2,000.
In the case of Carnosifloside V, the Sweetness/potency is listed as 51.
For Curculin, the Sweetness/potency is given as 550.
For Cyclocarioside A, the Sweetness/potency is listed as 200.
For Cyclocaryoside I, the Sweetness/potency is listed as 250.
For Monellin, the Sweetness/potency is given as 3,000.
For Pentadin, the Sweetness/potency is listed as 500.
In the case of Periandrin II, the Sweetness/potency is given as 95.
For Periandrin IV, the Sweetness/potency is given as 85.
In the case of Polypodoside A, the Sweetness/potency is listed as 600.
In the case of Pterocaryoside A, the Sweetness/potency is listed as 50.
In the case of Rebaudioside B, the Sweetness/potency is listed as 150.
In the case of Rebaudioside C, the Sweetness/potency is listed as 30.
In the case of Scandenoside R6, the Sweetness/potency is listed as 54.
For Thaumatin, the Sweetness/potency is given as 1,600.
